According to patent publication US20260258064A1 (SIRONAX LTD., priority 2023, published 2026):

Each compound was assayed against T1, SARM1 (50-724) (Homo sapiens, UniProt Q6SZW1) (assay: SARM1 (50-724) enzymatic assay (LC-MS/MS)). Details: Purified SARM1 (50-724) 2 nM, NMN as activator, NAD+ as substrate, 1 h at room temperature, read-out: IC50 (SARM1 inhibitory activity).
T1 construct: Purified SARM1 (50-724) with a final concentration of 2 nM was pre-incubated with a test compound
T1 sequence (Q6SZW1 50-724): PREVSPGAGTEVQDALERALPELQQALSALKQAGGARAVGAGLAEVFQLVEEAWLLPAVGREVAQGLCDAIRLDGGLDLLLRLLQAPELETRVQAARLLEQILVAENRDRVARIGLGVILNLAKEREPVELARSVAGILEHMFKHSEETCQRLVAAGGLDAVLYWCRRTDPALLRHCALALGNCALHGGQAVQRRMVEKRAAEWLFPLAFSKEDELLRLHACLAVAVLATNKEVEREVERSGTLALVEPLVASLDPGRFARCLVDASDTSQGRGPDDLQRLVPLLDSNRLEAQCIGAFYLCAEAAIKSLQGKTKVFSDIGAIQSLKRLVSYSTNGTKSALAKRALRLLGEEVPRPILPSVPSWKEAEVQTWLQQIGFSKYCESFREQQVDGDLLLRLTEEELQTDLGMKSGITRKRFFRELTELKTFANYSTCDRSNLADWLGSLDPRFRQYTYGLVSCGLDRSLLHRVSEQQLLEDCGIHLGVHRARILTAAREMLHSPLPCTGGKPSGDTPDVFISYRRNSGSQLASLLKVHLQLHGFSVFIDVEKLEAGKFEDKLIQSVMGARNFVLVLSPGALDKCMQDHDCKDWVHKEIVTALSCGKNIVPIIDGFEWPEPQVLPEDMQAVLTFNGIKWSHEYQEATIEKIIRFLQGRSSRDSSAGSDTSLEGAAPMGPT
Type: biochemical
Outline: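 Reaction buffer was Dulbecco's PBS. Compound and 2 nM human SARM1 (50-724) were pre-incubated 15 min at room temperature, then […] NAD^+ and 200 µM NMN activator were added for 1 h at room temperature. Acetonitrile (70%) stop, LC-MS/MS read-out, IC50 values.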

Compound | IC50
NC(=O)c1cc(-n2cnnc2-c2nc3cc(C(F)(F)F)ccc3[nH]2)c(Cl)cn1 [Compound 211, 5-chloro-4-(3-(5-(trifluoromethyl)-1H-benzo[d]imidazol-2-yl)-4H-1,2,4-triazol-4-yl)picolinamide] | ≤ 100 nM
COc1cc(-c2nc3cc(C(F)(F)F)ccc3[nH]2)c(-c2cccc(Cl)c2Cl)cn1 [Compound 402, 2-(5-(2,3-dichlorophenyl)-2-methoxypyridin-4-yl)-5-(trifluoromethyl)-1H-benzo[d]imidazole] | 100 to 500 nM
CNc1ccc(Cl)c(-n2cnnc2-c2nc3cc(C(F)(F)F)ccc3[nH]2)n1 [Compound 175, 5-Chloro-N-methyl-6-(3-(5-(trifluoromethyl)-1H-benzo[d]imidazol-2-yl)-4H-1,2,4-triazol-4-yl)pyridin-2-amine] | ≤ 100 nM
FC(F)(F)c1cnc2[nH]c(-c3nncn3-c3cnccc3C(F)(F)F)cc2c1 [Compound 287, 5-(trifluoromethyl)-2-(4-(4-(trifluoromethyl)pyridin-3-yl)-4H-1,2,4-triazol-3-yl)-1H-pyrrolo[2,3-b]pyridine] | ≤ 100 nM
OCC1CC1c1cc(F)c2[nH]c(-c3nncn3-c3cnccc3C(F)(F)F)nc2c1 (centres unmarked) [Compound 416, (2-(7-fluoro-2-(4-(4-(trifluoromethyl)pyridin-3-yl)-4H-1,2,4-triazol-3-yl)-1H-benzo[d]imidazol-5-yl)cyclopropyl)methanol] | ≤ 100 nM
Fc1cc(N2CCC(F)(F)C2)cc2nc(-c3nncn3-c3cnccc3C(F)(F)F)[nH]c12 [Compound 326, 5-(3,3-difluoropyrrolidin-1-yl)-7-fluoro-2-(4-(4-(trifluoromethyl)pyridin-3-yl)-4H-1,2,4-triazol-3-yl)-1H-benzo[d]imidazole] | 100 to 500 nM
CS(=O)(=O)c1ccc(OC(F)(F)F)c(-n2cnnc2-c2nc3cc(C(F)(F)F)cc(F)c3[nH]2)c1 [Compound 217, 7-fluoro-2-(4-(5-(methylsulfonyl)-2-(trifluoromethoxy)phenyl)-4H-1,2,4-triazol-3-yl)-5-(trifluoromethyl)-1H-benzo[d]imidazole] | ≤ 100 nM
OC1CCN(c2cc(F)c3[nH]c(-c4nncn4-c4cnccc4C(F)(F)F)nc3c2)C1 (centres unmarked) [Compound 447, 1-(4-fluoro-2-(4-(4-(trifluoromethyl)pyridin-3-yl)-4H-1,2,4-triazol-3-yl)-1H-benzo[d]imidazol-6-yl)pyrrolidin-3-ol] | 500 to 1000 nM
Cc1ccc2[nH]c(-n3c(C4CCCC4)n[nH]c3=O)nc2c1 [Compound 12, 5-cyclopentyl-4-(5-methyl-1H-benzo[d]imidazol-2-yl)-2,4-dihydro-3H-1,2,4-triazol-3-one] | > 1000 nM
CSc1nnc(-c2nc3cc(C(F)(F)F)ccc3[nH]2)n1-c1cccc(Cl)c1Cl [Compound 116] | 100 to 500 nM
CC(C)(C)c1ccc2[nH]c(-c3nncn3-c3cnccc3C(F)(F)F)cc2n1 [Compound 348, 5-(tert-butyl)-2-(4-(4-(trifluoromethyl)pyridin-3-yl)-4H-1,2,4-triazol-3-yl)-1H-pyrrolo[3,2-b]pyridine] | ≤ 100 nM
COc1ncc(Cl)c(-n2cnnc2-c2nc3cc(C(F)(F)F)ccc3[nH]2)n1 [Compound 169, 2-(4-(5-chloro-2-methoxypyrimidin-4-yl)-4H-1,2,4-triazol-3-yl)-5-(trifluoromethyl)-1H-benzo[d]imidazole] | > 1000 nM
FC(F)(F)c1ccc2[nH]c(-c3cccn3-c3nccnc3C(F)(F)F)nc2c1 [Compound 313] | 500 to 1000 nM
CS(=O)(=O)Cc1nnc(-c2nc3cc(C(F)(F)F)cc(F)c3[nH]2)n1-c1cccc(F)c1Cl [Compound 182, 2-(4-(2-Chloro-3-fluorophenyl)-5-((methylsulfonyl)methyl)-4H-1,2,4-triazol-3-yl)-7-fluoro-5-(trifluoromethyl)-1H-benzo[d]imidazole] | ≤ 100 nM
CS(=O)(=O)c1c(-c2nncn2-c2cccc(F)c2Cl)[nH]c2ccc(C(F)(F)F)cc12 [Compound 346, 2-[4-(2-chloro-3-fluorophenyl)-1,2,4-triazol-3-yl]-3-methanesulfonyl-5-(trifluoromethyl)-1H-indole] | ≤ 100 nM
O=c1[nH]nc(-c2cccc(Cl)c2Cl)n1-c1nc2cc(C(F)(F)F)ccc2[nH]1 [Compound 30, 3-(2,3-Dichlorophenyl)-4-[5-(trifluoromethyl)-1H-benzimidazol-2-yl]-1H-1,2,4-triazol-5-one] | > 1000 nM
FC(F)(F)c1ccc2[nH]c(-c3nncn3-c3nnccc3C(F)(F)F)nc2c1 [Compound 429, 5-(trifluoromethyl)-2-(4-(4-(trifluoromethyl)pyridazin-3-yl)-4H-1,2,4-triazol-3-yl)-1H-benzo[d]imidazole] | ≤ 100 nM
FC(F)c1ccncc1-n1cnnc1-c1nc2cc(C(F)(F)F)ccc2[nH]1 [Compound 252, 2-(4-(4-(difluoromethyl)pyridin-3-yl)-4H-1,2,4-triazol-3-yl)-5-(trifluoromethyl)-1H-benzo[d]imidazole] | ≤ 100 nM
CC(c1ccncc1)c1cc(F)c2[nH]c(-c3nncn3-c3cnccc3C(F)(F)F)nc2c1 (centres unmarked) [Compound 445, 7-fluoro-5-(1-(pyridin-4-yl)ethyl)-2-(4-(4-(trifluoromethyl)pyridin-3-yl)-4H-1,2,4-triazol-3-yl)-1H-benzo[d]imidazole] | ≤ 100 nM
CN(C)c1cc(F)c2[nH]c(-c3nncn3-c3cnccc3C(F)(F)F)nc2c1 [Compound 297, 7-fluoro-N,N-dimethyl-2-(4-(4-(trifluoromethyl)pyridin-3-yl)-4H-1,2,4-triazol-3-yl)-1H-benzo[d]imidazol-5-amine] | ≤ 100 nM
CCc1ccc2[nH]c(-c3nncn3-c3cnccc3C(F)(F)F)nc2c1 [Compound 277, 5-ethyl-2-(4-(4-(trifluoromethyl)pyridin-3-yl)-4H-1,2,4-triazol-3-yl)-1H-benzo [d]imidazole] | ≤ 100 nM
CNC(=O)Cc1nnc(-c2nc3cc(C(F)(F)F)ccc3[nH]2)n1-c1cccc(Cl)c1Cl [Compound 143, 2-(4-(2,3-Dichlorophenyl)-5-(5-(trifluoromethyl)-1H-benzo[d]imidazol-2-yl)-4H-1,2,4-triazol-3-yl)-N-methylacetamide] | ≤ 100 nM

Next, values leading:

IC50 | Compound
> 1000 nM | Cn1cc(-c2ccccc2)c(-c2nc3cc(C(F)(F)F)ccc3[nH]2)cc1=O [Example 86]
≤ 100 nM | Clc1cccc(-n2cnnc2-c2nc3cc(-c4cscn4)ccc3[nH]2)c1Cl [Example 100, 4-(2-(4-(2,3-dichlorophenyl)-4H-1,2,4-triazol-3-yl)-1H-benzo[d]imidazol-5-yl)thiazole]
≤ 100 nM | OC1(c2ccc3[nH]c(-c4nncn4-c4cccc(Cl)c4Cl)nc3c2)CCC1 [Example 111]
≤ 100 nM | CC(C)(CO)c1ccc2[nH]c(-c3nncn3-c3cccc(Cl)c3Cl)nc2c1 [Example 103]
≤ 100 nM | CC(c1ccncc1)c1cc(F)c2[nH]c(-c3nnccc3-c3cnccc3C(F)(F)F)nc2c1 (centres unmarked) [Compound 460, 7-fluoro-5-(1-(pyridin-4-yl)ethyl)-2-(4-(4-(trifluoromethyl)pyridin-3-yl)pyridazin-3-yl)-1H-benzo[d]imidazole]
100 to 500 nM | FC(F)(F)c1ccc2[nH]c(-c3nnc(OC4COC4)n3-c3cccc(Cl)c3Cl)nc2c1 [Example 117, 2-(4-(2,3-dichlorophenyl)-5-(oxetan-3-yloxy)-4H-1,2,4-triazol-3-yl)-5-(trifluoromethyl)-1H-benzo[d]imidazole]
≤ 100 nM | Fc1cc(C(F)(F)c2ccncc2)cc2nc(-c3nncn3-c3cnccc3C(F)(F)F)[nH]c12 [Compound 464, 6-(difluoro(pyridin-4-yl)methyl)-4-fluoro-2-(4-(4-(trifluoromethyl)pyridin-3-yl)-4H-1,2,4-triazol-3-yl)-1H-benzo[d]imidazole]
> 1000 nM | Cn1ncc(-c2cccc(Cl)c2Cl)c1-c1nc2cc(C(F)(F)F)ccc2[nH]1 [Example 39]
500 to 1000 nM | CCOC(=O)/C=C/c1cccc2[nH]c(-c3nncn3-c3cnccc3C(F)(F)F)nc12 [Compound 459, ethyl (E)-3-(2-(4-(4-(trifluoromethyl)pyridin-3-yl)-4H-1,2,4-triazol-3-yl)-1H-benzo[d]imidazol-4-yl)acrylate]
≤ 100 nM | N#CC1(c2ccc3[nH]c(-c4nncn4-c4ccc(F)c(F)c4Cl)nc3c2)CC1 [Example 135]
≤ 100 nM | Cc1ccc2[nH]c(-c3nncn3-c3cccc(Cl)c3Cl)nc2c1 [Example 5, 2-(4-(2,3-dichlorophenyl)-4H-1,2,4-triazol-3-yl)-5-methyl-1H-benzo[d]imidazole]
≤ 100 nM | Cc1cc(-c2ccc3[nH]c(-c4nncn4-c4cccc(Cl)c4Cl)nc3c2)n(C)n1 [Example 74, 2-(4-(2,3-dichlorophenyl)-4H-1,2,4-triazol-3-yl)-5-(1,3-dimethyl-1H-pyrazol-5-yl)-1H-benzo[d]imidazole]
≤ 100 nM | Cn1cc(-c2cccc(Cl)c2Cl)c(-c2nc3cc(C(F)(F)F)ccc3[nH]2)cc1=O [Example 48]
